Experiment: Solubility of AXT in water
Type: physicochemical

Solubility in water: poorly soluble in water
SMILES: CNC(=O)c1ccccc1Sc1ccc2c(/C=C/c3ccccn3)n[nH]c2c1 [AXT, Axitinib]

From patent US12016958B2, “Method for delivering an agent to posterior segment of an eye and uses thereof” (NANO TARGETING & THERAPY BIOPHARMA INC., priority 2021, dated 2024)
